In patent US9469615B2, “Quinoxalines and AZA-quinoxalines as CRTH2 receptor modulators” (Merck Sharp & Dohme Corp., priority 2010, dated 2016):

Target: T1, hCRTH2 (Homo sapiens, UniProt Q9Y5Y4)
T1 construct: expressed in transfected cells; host or cells: HEK (human embryonic kidney) cells expressing hCRTH2; membrane preparation
T1 sequence (Q9Y5Y4 1-395): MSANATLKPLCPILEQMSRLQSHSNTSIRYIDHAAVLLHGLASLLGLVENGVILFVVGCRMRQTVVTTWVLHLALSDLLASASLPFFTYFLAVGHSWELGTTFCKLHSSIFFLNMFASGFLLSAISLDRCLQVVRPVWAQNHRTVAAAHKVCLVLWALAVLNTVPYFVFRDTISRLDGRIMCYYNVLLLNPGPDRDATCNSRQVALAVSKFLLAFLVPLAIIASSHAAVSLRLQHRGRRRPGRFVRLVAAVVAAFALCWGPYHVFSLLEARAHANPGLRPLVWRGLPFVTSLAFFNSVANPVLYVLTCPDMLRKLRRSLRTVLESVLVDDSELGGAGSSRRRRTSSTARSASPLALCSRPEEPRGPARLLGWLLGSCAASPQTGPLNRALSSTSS
Assay: Radioligand binding assay ([3H]PGD2 competition, HEK-hCRTH2 membranes)
Summary of the method: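 Competition binding with 3.0 nM [3H]PGD2 and 8-20 μg HEK-hCRTH2 membrane protein in 50 mM Tris-HCl pH 7.4, 1 mM EDTA, 2 mM MnCl2, 1% Me2SO, 60 min at room temperature. Nonspecific binding defined with 10 μM PGD2; bound radioactivity counted after filtration.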

Compound	Ki ([3H]PGD2 binding, values in text) [nM]	Ki ([3H]PGD2 competition, Table B) [nM]
Cc1cnccc1N1CCN(C(=O)c2ccc3nc(-c4ccc(F)cc4)c(CCCCC(=O)O)nc3c2)CC1 [compound 368, 5-(3-(4-fluorophenyl)-7-(4-(3-methylpyridin-4-yl)piperazine-1-carbonyl)quinoxalin-2-yl)pentanoic acid]	21.4	20.1 to 200
O=C(O)CCCCc1nc2cc(C(=O)N[C@@H]3CCCc4cccnc43)ccc2nc1-c1ccccc1 [compound 370, (R)-8-(3-(4-carboxybutyl)-2-phenylquinoxaline-6-carboxamido)-5,6,7,8-tetrahydroquinolin-1-ium 2,2,2-trifluoroacetic acid]		201 to 700
CN(C(=O)c1ccc2nc(-c3ccccc3)c(CCCCC(=O)O)nc2c1)[C@@H]1CCCc2ccccc21 [compound 378, (R)-5-(7-(methyl(1,2,3,4-tetrahydronaphthalen-1-yl)carbamoyl)-3-phenylquinoxalin-2-yl)pentanoic acid]		20.1 to 200
CN(C(=O)c1ccc2nc(-c3ccccc3)c(CCCCC(=O)O)nc2c1)[C@@H]1CCCc2cc(F)ccc21 [compound 379, (R)-5-(7-((6-fluoro-1,2,3,4-tetrahydronaphthalen-1-yl)(methyl)carbamoyl)-3-phenylquinoxalin-2-yl)pentanoic acid]		2.1 to 20
CN(C(=O)c1ccc2nc(-c3ccccc3)c(CCCCC(=O)O)nc2c1)[C@@H]1CCCc2cc(Cl)ccc21 [compound 380, (R)-5-(7-((6-chloro-1,2,3,4-tetrahydronaphthalen-1-yl)(methyl)carbamoyl)-3-phenylquinoxalin-2-yl)pentanoic acid]		2.1 to 20
O=C(O)CCCCc1nc2cc(C(=O)N[C@H]3CCCc4cc(F)ccc43)ccc2nc1-c1ccccc1 [compound 385, (S)-5-(7-((6-fluoro-1,2,3,4-tetrahydronaphthalen-1-yl)carbamoyl)-3-phenylquinoxalin-2-yl)pentanoic acid]		2.1 to 20
O=C(O)CCCCc1nc2cc(C(=O)N[C@H]3CCCc4cc(Cl)ccc43)ccc2nc1-c1ccccc1 [compound 387, (S)-5-(7-((6-chloro-1,2,3,4-tetrahydronaphthalen-1-yl)carbamoyl)-3-phenylquinoxalin-2-yl)pentanoic acid]		2.1 to 20
O=C(O)CCCCc1nc2cc(C(=O)N[C@H]3CCCc4ccccc43)ccc2nc1-c1ccccc1 [compound 388, (S)-5-(3-phenyl-7-((1,2,3,4-tetrahydronaphthalen-1-yl)carbamoyl)quinoxalin-2-yl)pentanoic acid]		2.1 to 20
CC(CCCc1nc2cc(C(=O)N[C@H](C)c3ccc(Cl)cc3)ccc2nc1-c1ccc(Cl)cc1)C(=O)O (stereo partly drawn) [compound 391, 5-(3-(4-chlorophenyl)-7-(((R)-1-(4-chlorophenyl)ethyl)carbamoyl)quinoxalin-2-yl)-2-methylpentanoic acid]		2.1 to 20
CC(CCCc1nc2cc(C(=O)N[C@@H](C)c3ccc(Cl)cc3)ccc2nc1-c1ccc(Cl)cc1)C(=O)O (stereo partly drawn) [compound 392, 5-(3-(4-chlorophenyl)-7-(((S)-1-(4-chlorophenyl)ethyl)carbamoyl)quinoxalin-2-yl)-2-methylpentanoic acid]		2.1 to 20
Cc1ccc(CNC(=O)c2ccc3nc(-c4ccc(Cl)cc4)c(CC4CCC(C(=O)O)C4)nc3c2)cc1 (centres unmarked) [compound 393, 3-((3-(4-chlorophenyl)-7-((4-methylbenzyl)carbamoyl)quinoxalin-2-yl)methyl)cyclopentane-carboxylic acid]		2.1 to 20
C[C@@H](NC(=O)c1ccc2nc(-c3ccc(Cl)cc3)c(CC3CCC(C(=O)O)C3)nc2c1)c1ccccc1 (stereo partly drawn) [compound 394, 3-((3-(4-chlorophenyl)-7-(((R)-1-phenylethyl)carbamoyl)quinoxalin-2-yl)methyl)cyclopentane-carboxylic acid]		2.1 to 20
O=C(N[C@H](c1ccccc1)C(F)(F)F)c1ccc2nc(-c3ccc(Cl)cc3)c(CC3CCC(C(=O)O)C3)nc2c1 (stereo partly drawn) [compound 395, 3-((3-(4-chlorophenyl)-7-(((R)-2,2,2-trifluoro-1-phenylethyl)carbamoyl)quinoxalin-2-yl)methyl)cyclopentane-carboxylic acid]		2.1 to 20
O=C(O)C1CCC(Cc2nc3cc(C(=O)N4CC(c5ccc(F)cc5)C4)ccc3nc2-c2ccc(Cl)cc2)C1 (centres unmarked) [compound 396, 3-((3-(4-chlorophenyl)-7-(3-(4-fluorophenyl)azetidine-1-carbonyl)quinoxalin-2-yl)methyl)cyclopentanecarboxylic acid]		2.1 to 20
O=C(O)C1CCC(Cc2nc3cc(C(=O)N4CC(c5cccc(F)c5)C4)ccc3nc2-c2ccc(Cl)cc2)C1 (centres unmarked) [compound 397, 3-((3-(4-chlorophenyl)-7-(3-(3-fluorophenyl)azetidine-1-carbonyl)quinoxalin-2-yl)methyl)cyclopentane-carboxylic acid]		2.1 to 20
O=C(O)C1CCC(Cc2nc3cc(C(=O)N4CC(c5ccc(F)c(F)c5)C4)ccc3nc2-c2ccc(Cl)cc2)C1 (centres unmarked) [compound 398, 3-((3-(4-chlorophenyl)-7-(3-(3,4-difluorophenyl)azetidine-1-carbonyl)quinoxalin-2-yl)methyl)cyclopentane-carboxylic acid]		2.1 to 20

Second part, the molecule after the results:

Ki ([3H]PGD2 binding, values in text) [nM]	Ki ([3H]PGD2 competition, Table B) [nM]	Compound
	2.1 to 20	Cc1ccc(N2CCN(C(=O)c3ccc4nc(-c5ccc(F)cc5)c(CCCCC(=O)O)nc4c3)CC2)cc1 [compound 369, 5-(3-(4-fluorophenyl)-7-(4-(p-tolyl)piperazine-1-carbonyl)quinoxalin-2-yl)pentanoic acid]
	2.1 to 20	O=C(O)CCCCc1nc2cc(C(=O)N[C@H]3CCCc4cccnc43)ccc2nc1-c1ccccc1 [compound 371, (S)-8-(3-(4-carboxybutyl)-2-phenylquinoxaline-6-carboxamido)-5,6,7,8-tetrahydroquinolin-1-ium 2,2,2-trifluoroacetic acid]
	2.1 to 20	COc1ccc(C2CN(C(=O)c3ccc4nc(-c5ccc(F)cc5)c(CCCCC(=O)O)nc4c3)C2)cc1 [compound 372, 5-(3-(4-fluorophenyl)-7-(3-(4-methoxyphenyl)azetidine-1-carbonyl)quinoxalin-2-yl)pentanoic acid]
	2.1 to 20	COc1cccc(C2CN(C(=O)c3ccc4nc(-c5ccc(F)cc5)c(CCCCC(=O)O)nc4c3)C2)c1 [compound 373, 5-(3-(4-fluorophenyl)-7-(3-(3-methoxyphenyl)azetidine-1-carbonyl)quinoxalin-2-yl)pentanoic acid]
	0.1 to 2	C[C@@H](NC(=O)c1ccc2nc(-c3ccc(Cl)cc3)c(CCCCC(=O)O)nc2c1)c1ccc(F)c(F)c1 [compound 374, (R)-5-(3-(4-chlorophenyl)-7-((1-(3,4-difluorophenyl)ethyl)carbamoyl)quinoxalin-2-yl)pentanoic acid]
	0.1 to 2	C[C@H](NC(=O)c1ccc2nc(-c3ccc(Cl)cc3)c(CCCCC(=O)O)nc2c1)c1ccc(F)c(F)c1 [compound 375, (S)-5-(3-(4-chlorophenyl)-7-((1-(3,4-difluorophenyl)ethyl)carbamoyl)quinoxalin-2-yl)pentanoic acid]
	2.1 to 20	CC[C@@H](NC(=O)c1ccc2nc(-c3ccc(Cl)cc3)c(CCCCC(=O)O)nc2c1)c1ccc(F)cc1 [compound 376, (R)-5-(3-(4-chlorophenyl)-7-((1-(4-fluorophenyl)propyl)carbamoyl)quinoxalin-2-yl)pentanoic acid]
	2.1 to 20	CC[C@H](NC(=O)c1ccc2nc(-c3ccc(Cl)cc3)c(CCCCC(=O)O)nc2c1)c1ccc(F)cc1 [compound 377]
	0.1 to 2	O=C(O)CCCCc1nc2cc(C(=O)N[C@@H]3CCc4cc(F)ccc43)ccc2nc1-c1ccc(Cl)cc1 [compound 381, (R)-5-(3-(4-chlorophenyl)-7-((5-fluoro-2,3-dihydro-1H-inden-1-yl)carbamoyl)quinoxalin-2-yl)pentanoic acid]
	0.1 to 2	O=C(O)CCCCc1nc2cc(C(=O)N[C@H]3CCc4cc(F)ccc43)ccc2nc1-c1ccc(Cl)cc1 [compound 382, (S)-5-(3-(4-chlorophenyl)-7-((5-fluoro-2,3-dihydro-1H-inden-1-yl)carbamoyl)quinoxalin-2-yl)pentanoic acid]
	0.1 to 2	O=C(O)CCCCc1nc2cc(C(=O)N[C@@H]3CCc4cc(Cl)ccc43)ccc2nc1-c1ccc(Cl)cc1 [compound 383, (R)-5-(7-((5-chloro-2,3-dihydro-1H-inden-1-yl)carbamoyl)-3-(4-chlorophenyl)quinoxalin-2-yl)pentanoic acid]
	0.1 to 2	O=C(O)CCCCc1nc2cc(C(=O)N[C@H]3CCc4cc(Cl)ccc43)ccc2nc1-c1ccc(Cl)cc1 [compound 384, (S)-5-(7-((5-chloro-2,3-dihydro-1H-inden-1-yl)carbamoyl)-3-(4-chlorophenyl)quinoxalin-2-yl)pentanoic acid]
	0.1 to 2	O=C(O)CCCCc1nc2cc(C(=O)N[C@@H]3CCCc4cc(Cl)ccc43)ccc2nc1-c1ccccc1 [compound 386, (R)-5-(7-((6-chloro-1,2,3,4-tetrahydronaphthalen-1-yl)carbamoyl)-3-phenylquinoxalin-2-yl)pentanoic acid]
	0.1 to 2	COc1ccc(C2CN(C(=O)c3ccc4nc(-c5ccccc5)c(CCCCC(=O)O)nc4c3)C2)cc1 [compound 389, 5-(7-(3-(4-methoxyphenyl)azetidine-1-carbonyl)-3-phenylquinoxalin-2-yl)pentanoic acid]
	0.1 to 2	COc1cccc(C2CN(C(=O)c3ccc4nc(-c5ccccc5)c(CCCCC(=O)O)nc4c3)C2)c1 [compound 390, 5-(7-(3-(3-methoxyphenyl)azetidine-1-carbonyl)-3-phenylquinoxalin-2-yl)pentanoic acid]
